The assay addresses T1, hFXR (Homo sapiens, UniProt Q96RI1).
T1 construct: expressed in transfected cells; host or cells: CV-1 cells
T1 sequence (Q96RI1 1-486): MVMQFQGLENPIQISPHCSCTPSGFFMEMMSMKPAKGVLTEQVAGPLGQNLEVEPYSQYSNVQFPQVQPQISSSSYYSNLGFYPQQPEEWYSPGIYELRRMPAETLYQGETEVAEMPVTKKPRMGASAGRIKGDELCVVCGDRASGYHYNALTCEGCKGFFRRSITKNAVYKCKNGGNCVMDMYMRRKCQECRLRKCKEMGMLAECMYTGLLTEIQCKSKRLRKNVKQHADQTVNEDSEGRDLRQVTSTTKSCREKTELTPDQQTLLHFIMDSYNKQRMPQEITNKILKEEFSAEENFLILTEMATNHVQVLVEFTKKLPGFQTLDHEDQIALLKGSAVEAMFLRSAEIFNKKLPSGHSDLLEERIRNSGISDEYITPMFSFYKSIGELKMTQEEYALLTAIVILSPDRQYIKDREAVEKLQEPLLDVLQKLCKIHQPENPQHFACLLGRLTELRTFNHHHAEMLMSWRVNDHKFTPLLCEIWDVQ
T1 sequence (P19793 1-462 partner): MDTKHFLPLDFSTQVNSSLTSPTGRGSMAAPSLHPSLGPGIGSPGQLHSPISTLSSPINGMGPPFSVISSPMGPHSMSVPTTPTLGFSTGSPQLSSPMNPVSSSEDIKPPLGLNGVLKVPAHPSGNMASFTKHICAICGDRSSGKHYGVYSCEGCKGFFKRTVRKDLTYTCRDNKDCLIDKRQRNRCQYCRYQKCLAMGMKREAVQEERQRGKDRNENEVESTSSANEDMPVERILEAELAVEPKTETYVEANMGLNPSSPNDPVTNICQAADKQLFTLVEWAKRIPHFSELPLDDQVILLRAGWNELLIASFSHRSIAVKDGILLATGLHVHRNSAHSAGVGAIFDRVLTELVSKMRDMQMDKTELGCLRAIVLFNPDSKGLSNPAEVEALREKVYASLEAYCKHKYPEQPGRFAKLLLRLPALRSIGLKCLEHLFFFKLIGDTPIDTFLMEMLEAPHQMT
Kind of assay: In Vitro FXR Assay (TK): TK-ECRE-luc reporter in transfected CV-1 cells. The following applies: 18 hrs, luminescence, maximum efficacy of <25% of the Fexarmine control classified as '+'. The format is cell-based. An outline of the steps: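 CV-1, transient co-transfection: hFXR + hRXR + TK-ECRE-luc + pCMX-YFP; charcoal-stripped serum. 18 h post-transfection, DMSO serial dilutions of cpd added; 18 h incubation; lysis, luminescence.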

The compound `COc1ccc([C@H]2CC[C@H](CN(c3cccc(-c4cnn(C(C)C)c4)c3)C(=O)[C@H]3CC[C@H](OC(=O)N4CC(O)C4)CC3)CC2)cc1C` [Compound 7.14, trans-4-((3-(1-Isopropyl-1H-pyrazol-4-yl)phenyl)((trans-4-(4-methoxy-3-methylphenyl)cyclohexyl)methyl)carbamoyl)cyclohexyl 3-hydroxyazetidine-1-carboxylate] returned an EC50 of at most 0.25 µM. As to `COC(=O)C12CCC(C(=O)N(C[C@H]3CC[C@H](c4ccc(OC)c(C)c4)CC3)c3cccc(-c4cnc(OC)s4)c3)(CC1)CC2` [Compound 18.10, Methyl 4-(((trans-4-(4-methoxy-3-methylphenyl)cyclohexyl)methyl)(3-(2-methoxythiazol-5-yl)phenyl)carbamoyl)bicyclo[2.2.2]octane-1-carboxylate], the EC50 is at most 0.25 µM.

Take `COc1ccc([C@H]2CC[C@H](CN(c3cccc(-c4cnc(C5CC5)s4)c3)C(=O)[C@H]3CC[C@H](NC(=O)CSC)CC3)CC2)cc1C` [Compound 31.10, trans-N-(3-(2-Cyclopropylthiazol-5-yl)phenyl)-N-((trans-4-(4-methoxy-3-methylphenyl)cyclohexyl)methyl)-4-(2-(methylthio)acetamido) cyclohexanecarboxamide]: the EC50 was at most 0.25 µM. Then `COC(=O)O[C@H]1CC[C@H](C(=O)N(C[C@H]2CC[C@H](c3ccc(OC)c(C)n3)CC2)c2cc(-c3coc(C4CC4)n3)ccn2)CC1` [Compound 5.49, trans-4-((4-(2-Cyclopropyloxazol-4-yl)pyridine-2-yl)((trans-4-(5-methoxy-6-methylpyridin-2-yl)cyclohexyl)methyl)carbamoyl)cyclohexyl methyl carbonate], with at most 0.25 µM; and `COCCNC(=O)O[C@H]1CC[C@H](C(=O)N(C[C@H]2CC[C@H](c3ccc(OC)c(C)n3)CC2)c2cc(-c3coc(C4CC4)n3)ccn2)CC1` [Compound 6.56, trans-4-((4-(2-Cyclopropyloxazol-4-yl)pyridine-2-yl)((trans-4-(5-methoxy-6-methylpyridin-2-yl)cyclohexyl)methyl)carbamoyl)cyclohexyl (2-methoxyethyl) carbamate], with at most 0.25 µM; and `COc1ncc(-c2cccc(N(C[C@H]3CC[C@H](c4ccc(OC)c(C)c4)CC3)C(=O)[C@H]3CC[C@H](OCCCO)CC3)c2)s1` [Compound 13.04, trans-4-(3-Hydroxypropoxy)-N-((trans-4-(4-methoxy-3-methylphenyl)cyclohexyl)methyl)-N-(3-(2-methoxythiazol-5-yl)phenyl) cyclohexanecarboxamide], with at most 0.25 µM. The compound `COC(=O)C1CN(C(=O)O[C@H]2CC[C@H](C(=O)N(C[C@H]3CC[C@H](c4ccc(OC)c(C)c4)CC3)c3cccc(-c4cnn(C5CC5)c4)c3)CC2)C1` [Compound 7.34, 1-(trans-4-((3-(1-Cyclopropyl-1H-pyrazol-4-yl)phenyl)((trans-4-(4-methoxy-3-methylphenyl)cyclohexyl)methyl)carbamoyl)cyclohexyl) 3-methylazetidine-1,3-dicarboxylate] came in with an EC50 of at most 0.25 µM. Then `COc1ccc([C@H]2CC[C@H](CN(c3cc(-c4cnn(C(C)C)c4)ccn3)C(=O)[C@H]3CC[C@H](CO)CC3)CC2)nc1C` [Compound 15.03, trans-4-(Hydroxymethyl)-N-(4-(1-isopropyl-1H-pyrazol-4-yl)pyridin-2-yl)-N-((trans-4-(5-methoxy-6-methylpyridin-2-yl)cyclohexyl)methyl) cyclohexanecarboxamide], with at most 0.25 µM. Then `COCCCO[C@H]1CC[C@H](C(=O)N(C[C@H]2CC[C@H](c3ccc(OC)c(C)c3)CC2)c2cccc(-c3cnc(OC)s3)c2)CC1` [Compound 13.02, trans-N-((trans-4-(4-Methoxy-3-methylphenyl)cyclohexyl)methyl)-4-(3-methoxypropoxy)-N-(3-(2-methoxythiazol-5-yl)phenyl) cyclohexanecarboxamide], with at most 0.25 µM.

`COc1ccc([C@H]2CC[C@H](CN(c3cccc(-c4cnc(C5CC5)s4)c3)C(=O)[C@H]3CC[C@H](OC(=O)NCCO)CC3)CC2)nc1C#N` [Compound 6.06, trans-4-(((trans-4-(6-Cyano-5-methoxypyridin-2-yl)cyclohexyl)methyl) (3-(2-cyclopropylthiazol-5-yl)phenyl)carbamoyl)cyclohexyl (2-hydroxyethyl)carbamate]: the EC50 was at most 0.25 µM.

As to `Cn1nc(F)c2cc([C@H]3CC[C@H](CN(c4cccc(-c5cnn(C6CC6)c5)c4)C(=O)[C@H]4CC[C@H](C(=O)O)CC4)CC3)ccc21` [Compound 17.16, trans-4-((3-(1-Cyclopropyl-1H-pyrazol-4-yl)phenyl)((trans-4-(3-fluoro-1-methyl-1H-indazol-5-yl)cyclohexyl)methyl)carbamoyl) cyclohexanecarboxylic acid], the concentration giving a half-maximal response (EC50) was at most 0.25 µM. Regarding `COc1ccc([C@H]2CC[C@H](CN(c3cc(-c4coc(C5CC5)n4)ccn3)C(=O)[C@H]3CC[C@H](NC(C)=O)CC3)CC2)cc1C` [Compound 26.20, trans-4-Acetamido-N-(4-(2-cyclopropyloxazol-4-yl)pyridine-2-yl)-N-((trans-4-(4-methoxy-3-methylphenyl)cyclohexyl)methyl) cyclohexanecarboxamide], the EC50 was at most 0.25 µM.

Turning to `COc1ccc([C@H]2CC[C@H](CN(c3cccc(-c4cnc(C5CC5)s4)c3)C(=O)[C@H]3CC[C@H](NC(=O)CO)CC3)CC2)cc1C` [Compound 25.14, trans-N-(3-(2-Cyclopropylthiazol-5-yl)phenyl)-4-(2-hydroxyacetamido)-N-((trans-4-(4-methoxy-3-methylphenyl)cyclohexyl)methyl) cyclohexanecarboxamide], the 50% effective concentration (EC50) was at most 0.25 µM. The result for `COc1ccc([C@H]2CC[C@H](CN(c3cccc(-c4cnn(C5CC5)c4)c3)C(=O)[C@H]3CC[C@H](OC(=O)[C@H]4CC[C@H](O)CC4)CC3)CC2)cc1C` [Compound 10, trans-4-((3-(1-Cyclopropyl-1H-pyrazol-4-yl)phenyl)((trans-4-(4-methoxy-3-methylphenyl)cyclohexyl)methyl)carbamoyl)cyclohexyl trans-4-hydroxycyclohexanecarboxylate] reads at most 0.25 µM. The result for `COCC1CN(C(=O)O[C@H]2CC[C@H](C(=O)N(C[C@H]3CC[C@H](c4ccc(OC)c(C)c4)CC3)c3cccc(-c4cnn(C5CC5)c4)c3)CC2)C1` [Compound 7.26, trans-4-((3-(1-Cyclopropyl-1H-pyrazol-4-yl)phenyl)((trans-4-(4-methoxy-3-methylphenyl)cyclohexyl)methyl)carbamoyl)cyclohexyl 3-(methoxymethyl)azetidine-1-carboxylate] reads at most 0.25 µM.

`CNC(=O)O[C@H]1CC[C@H](C(=O)N(C[C@H]2CC[C@H](c3ccc(OC)c(C)n3)CC2)c2cccc(-c3coc(C4CC4)n3)c2)CC1` [Compound 5.32, trans-4-((3-(2-Cyclopropyloxazol-4-yl)phenyl)((trans-4-(5-methoxy-6-methylpyridin-2-yl)cyclohexyl)methyl)carbamoyl)cyclohexyl methylcarbamate] registered an EC50 of at most 0.25 µM. Then `COc1ccc([C@H]2CC[C@H](CN(c3cccc(-c4coc(C5CC5)n4)c3)C(=O)[C@H]3CC[C@H](OC(=O)NCCO)CC3)CC2)cc1C#N` [Compound 6.53, trans-4-(((trans-4-(3-Cyano-4-methoxyphenyl)cyclohexyl)methyl)(3-(2-cyclopropyloxazol-4-yl)phenyl)carbamoyl)cyclohexyl (2-hydroxyethyl)carbamate], with at most 0.25 µM; and `COc1ccc([C@H]2CC[C@H](CN(c3cccc(-c4cnn(C5CC5)c4)c3)C(=O)[C@H]3CC[C@H](OC(=O)NC[C@@H](O)CO)CC3)CC2)cc1C` [Compound 6.13, trans-4-((3-(1-Cyclopropyl-1H-pyrazol-4-yl)phenyl)((trans-4-(4-methoxy-3-methylphenyl)cyclohexyl)methyl)carbamoyl)cyclohexyl ((R)-2,3-dihydroxypropyl)carbamate], with at most 0.25 µM; and `COc1ccc([C@H]2CC[C@H](CN(c3cccc(-c4cnn(C5CC5)c4)c3)C(=O)[C@H]3CC[C@H](OC(=O)N4CC(S(C)(=O)=O)C4)CC3)CC2)cc1C` [Compound 6.29, trans-4-((3-(1-Cyclopropyl-1H-pyrazol-4-yl)phenyl)((trans-4-(4-methoxy-3-methylphenyl)cyclohexyl)methyl)carbamoyl)cyclohexyl 3-(methylsulfonyl)azetidine-1-carboxylate], with at most 0.25 µM.

The record behind these values is patent US20220089575A1, “FARNESOID X RECEPTOR AGONISTS AND USES THEREOF” (Metacrine, Inc., priority 2017, published 2022).
